Measurements as given in publication PMC10526139, “Molecular and Pharmacokinetic Aspects of the Acetylcholinesterase-Inhibitory Potential of the Oleanane-Type Triterpenes and Their Glycosides” (Biomolecules, 2023).

What was measured:
[1] = target: T1, AChE from electric eel type VI-S (Electrophorus electricus, UniProt O42275); assay: TLC-bioautography assay towards AChE inhibition; format: biochemical
T1 construct: purchased Sigma Aldrich
Experimental: Six standards of oleanane-type triterpenes: arjunic acid, arjunolic acid, arjungenin, arjunglucoside I, sericic acid and arjunetin—purchased from Sigma Aldrich (St. Louis, MO, USA)—were prepared at the concentration of 1 mg/mL in double-distilled water: methanol (50:50 v/v) and they were applied separately at the surface of the aluminum normal phase 10 cm × 10 cm TLC plate (Silica gel 60 F254, Merck, Darmstadt, Germany) with an autosampler (Camag, Muttenz, Switzerland) as the 6 mm zones, distant from one another by 1.5 cm horizontally and 2 cm vertically. Every reference solution was applied as 4, 6, 8 and 10 µL volume bands on three TLC plates.
The TLC plates were later subjected to the enzymatic assay according to the previously published protocol, with some modifications.
As the TLC plate was not developed in a TLC solvent system but was used directly in the TLC bioautographic assay, the authors modified the previously published protocol and sprayed the TLC with the substrate (2-naphtyl acetate; Sigma Aldrich, St. Louis, […], USA) dissolved in distilled water at the quantity of 30 mg/20 mL. The TLC was dried in cold air and later the solution of the AChE enzyme (AChE from electric eel type VI-S, Sigma Aldrich, St. Louis, […], USA) dissolved in the aqueous solution of Tris-HCl buffer (pH 7.8; Sigma Aldrich, St. Louis, […], USA) with […] (500 mg/100 mL, Sigma Aldrich, St. Louis, […], USA) at the quantity of 3 U/mL was sprayed on the TLC plate and incubated at the temperature of 37 °C for the following 20 min in a humid incubator. In the next step, the Fast Blue B (Sigma Aldrich, St. Louis, […], USA) solution (0.615 mg/mL) was sprayed on the plate and visualized active zones as white spots against the violet background. The area of the discolored zones corresponded to the inhibitory strength of the respective zones.
Finally, the TLC plate was dried in the air and analyzed by a Camag TLC visualizer (Camag, Muttenz, Switzerland) under visible light. The peak areas of the discolored zones were automatically calculated by the WinCats program (version 1.4, Camag, Muttenz, Switzerland) and their size was compared to calculate the IC50 values that corresponded to the concentration of the standard giving the half maximum inhibition of the AChE enzyme.

[2] = system: AChE; conditions: AChE inhibition; cited from earlier work

T1 sequence (O42275 24-633): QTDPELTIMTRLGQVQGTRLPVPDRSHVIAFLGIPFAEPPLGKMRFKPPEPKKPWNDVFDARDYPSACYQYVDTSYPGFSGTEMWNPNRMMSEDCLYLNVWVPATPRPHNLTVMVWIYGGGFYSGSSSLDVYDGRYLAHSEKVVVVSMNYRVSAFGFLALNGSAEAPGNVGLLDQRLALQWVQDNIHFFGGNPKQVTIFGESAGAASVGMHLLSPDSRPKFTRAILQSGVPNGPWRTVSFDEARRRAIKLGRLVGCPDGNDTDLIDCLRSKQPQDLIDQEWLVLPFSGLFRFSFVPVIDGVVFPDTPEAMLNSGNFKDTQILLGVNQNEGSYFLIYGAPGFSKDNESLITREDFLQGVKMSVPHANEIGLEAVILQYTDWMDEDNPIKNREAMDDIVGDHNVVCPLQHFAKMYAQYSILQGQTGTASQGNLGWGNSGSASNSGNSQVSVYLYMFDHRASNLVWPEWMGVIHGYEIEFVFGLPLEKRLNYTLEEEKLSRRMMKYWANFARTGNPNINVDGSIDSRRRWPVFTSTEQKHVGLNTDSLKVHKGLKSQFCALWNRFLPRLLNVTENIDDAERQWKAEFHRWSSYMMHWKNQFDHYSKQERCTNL

Structure (SMILES) | IC50 [1] [µM] | IC50 [2] [µM]
CC1(C)CC[C@]2(C(=O)O)CC[C@]3(C)C(=CC[C@@H]4[C@@]5(C)C[C@@H](O)[C@H](O)[C@](C)(CO)[C@@H]5CC[C@]43C)[C@@H]2[C@@H]1O [Sericic acid] | 16.4 | –
CC1(C)CC[C@]2(C(=O)O[C@@H]3O[C@H](CO)[C@@H](O)[C@H](O)[C@H]3O)CC[C@]3(C)C(=CC[C@@H]4[C@@]5(C)C[C@@H](O)[C@H](O)C(C)(C)[C@@H]5CC[C@]43C)[C@@H]2[C@@H]1O [Arjunetin] | 18.8 | –
C[C@H]1[C@H](C)CC[C@]2(C(=O)O)CC[C@]3(C)C(=CC[C@@H]4[C@@]5(C)C[C@@H](O)[C@H](O)[C@@](C)(CO)[C@@H]5CC[C@]43C)[C@H]12 [asiatic acid] | – | 15.05 ± 0.05
CC1(C)CC[C@]2(C(=O)O[C@@H]3O[C@H](CO)[C@@H](O)[C@H](O)[C@H]3O)CC[C@]3(C)C(=CC[C@@H]4[C@@]5(C)C[C@@H](O)[C@H](O)[C@@](C)(CO)[C@@H]5CC[C@]43C)[C@@H]2[C@@H]1O [Arjunglucoside I] | 13.2 | –
CC1(C)CC[C@]2(C(=O)O)CC[C@]3(C)C(=CC[C@@H]4[C@@]5(C)C[C@@H](O)[C@H](O)C(C)(C)[C@@H]5CC[C@]43C)[C@@H]2[C@@H]1O [Arjunic acid] | 20.7 | –
CC1(C)CC[C@]2(C(=O)O)CC[C@]3(C)C(=CC[C@@H]4[C@@]5(C)C[C@@H](O)[C@H](O)[C@@](C)(CO)[C@@H]5CC[C@]43C)[C@@H]2[C@@H]1O [Arjungenin] | 19.5 | –
CC1(C)CC[C@]2(C(=O)O)CC[C@]3(C)C(=CC[C@@H]4[C@@]5(C)C[C@@H](O)[C@H](O)[C@@](C)(CO)[C@@H]5CC[C@]43C)[C@@H]2C1 [Arjunolic acid] | 16.2 | –
